Measured values from patent US20090163551A1, “Compositions and Methods for Treating Diseases” (Novartis AG, priority 2006, published 2009).
Entries after “also recorded” stand apart in the source; their conditions may differ. Counter-ions that a name gives are not always drawn.

Tests used:
[1] = tested on: circular muscle strips from the gastric antrum; assay: Contractile responses to EFS of enteric nerves in antral muscle strips of pretreated indomethacin rats; type: in vivo, rat; conditions: for Regression Analysis Slope: linear regression of EFS (0.5 ms, 1-15 Hz) frequency-response, indomethacin-treated rats, mean ± SEM, 5-6 rats per group
[2] = tested on: rat model of indomethacin-induced gastric mucosal ulceration; assay: Indomethacin-induced gastric mucosal ulceration (ulceration index); type: in vivo; conditions: rats; tegaserod 1 mg/kg, omeprazole 20 mg/kg i.p. b.i.d. one day before and 30 min prior to indomethacin 50 mg/kg intragastric; 6 h post-indomethacin; vs vehicle
Description: Male Sprague-Dawley rats (Charles River, Laboratories, Wilmington, Mass.) weighing 250-300 g were housed two in a cage at standard conditions (21-23° C., controlled humidity, 12 hour light/dark cycle). The animals were allowed to acclimate for one week prior to initiation of drug treatment. The experimental procedures were approved by the Animal Care and Use Committees at the V.A. Medical Center and the University of Oklahoma Health Science Center, Oklahoma City, Okla.
(§1) Prior to the experiment the rats were fasted overnight with free access to water. On the day of experiment the rats received intragastric gavage of 50 mg/kg indomethacin dissolved in 2% NaCO3 and brought to a volume of 1.5 mL in saline (pH 6.8). Indomethacin was given at 7:30 A.M. and the animals were then placed in their home cage with free access to food and water. The rats were euthanized 6 h post-indomethacin infusion, the stomach was isolated and placed in Ca^2+-free Krebs buffer aerated with 95% O2 and 5% CO2.
Drugs were prepared fresh for each experiment and stored at 4° C. between treatments. […]
(§2) The stomach was cut along the small curvature, cleansed of ingested food and the fundus was separated from the glandular portion of the stomach. […] The total length of hemorrhagic lesions, which were approximately 1 mm wide, was measured and served as an index of ulceration. […]

[3] = tested on: circular muscle strips from the gastric antrum; assay: Contractile responses to carbachol in antral circular muscle strips of pretreated indomethacin rats; type: in vivo, rat; conditions: strips from indomethacin-treated rats pretreated with tegaserod 1 mg/kg, omeprazole 20 mg/kg; vs vehicle
[4] = tested on: circular muscle strips from the gastric antrum; assay: Contractile response to KCl (80 mM) in antral circular muscle strips of pretreated indomethacin rats; type: in vivo, rat; conditions: strips from indomethacin-treated rats pretreated with tegaserod 1 mg/kg, omeprazole 20 mg/kg, vs vehicle
[5] = tested on: circular muscle strips from the gastric antrum; assay: Contractile responses to 5-HT in antral circular muscle strips of pretreated indomethacin rats; type: in vivo, rat; conditions: strips from indomethacin-treated rats pretreated with tegaserod 1 mg/kg, omeprazole 20 mg/kg; vs vehicle
[6] = tested on: myeloperoxidase (MPO) activity; assay: Mucosal myeloperoxidase activity after indomethacin; type: in vivo, rat; conditions: rats; tegaserod 1 mg/kg, omeprazole 20 mg/kg i.p. pretreatment; glandular stomach 6 h after indomethacin 50 mg/kg
Description: as §1
Drugs were prepared fresh for each experiment and stored at 4° C. between treatments. […] A separate control group received treatment with propylene glycol only. […]
as §2
Following dissection, the mucosal tissue was snap-frozen in liquid nitrogen and stored at −80° C. and MPO activity was assayed simultaneously. […] MPO activity was expressed as equivalent to the activity of the relative standard (ng of HRP) converting the same amount of TMB substrate for 10 min at room temperature. […]

5-HT receptors = assay: 5-HT concentration-response curve in antral circular muscle strips; type: cell-based, rat; conditions: 5-HT contraction
[7] = tested on: smooth muscle muscarinic receptors; assay: Carbachol concentration-response curve in antral circular muscle strips; type: cell-based, rat; conditions: carbachol contraction
enteric nerves = type: cell-based, rat
[8] = EFS 0.5 ms, 1-15 Hz, strips from indomethacin-treated rats pretreated with tegaserod 1 mg/kg, omeprazole 20 mg/kg
[9] = second group not named in the sentence (indomethacin-treated rats receiving vehicle)
[10] = strips from vehicle pretreated rats receiving indomethacin

Compound: COc1ccc2[nH]c([S+]([O-])Cc3ncc(C)c(OC)c3C)nc2c1 (stereo not drawn) [Omeprazole, omeprazole]
- Regression Analysis Slope [1]: 78.8 ± 9.5

Compound: CCCCCNC(=N)NN=Cc1c[nH]c2ccc(OC)cc12 [Tegaserod, 3-(5-methoxy-1H-indol-3-ylmethylene)-N-pentylcarbazimidamide]
- formation of gastric lesions (ulceration index) [2]: reduced gastric ulceration; also recorded: significantly reduced the formation of gastric lesions
- increase of contractile responses to EFS [1, 8]: prevented the increase of contractile responses to EFS
- linear frequency-response relationship of EFS contractile responses [1, 8]: preserved the linear frequency-response relationship; also recorded: protected the linear increase in the amplitude of contractile responses
- Indomethacin-induced hypercontractility (KCl, carbachol, 5-HT, EFS; overall statement) ([1]; antral circular muscle strips, tegaserod 1 mg/kg, omeprazole 20 mg/kg pretreatment): significantly attenuated
- Regression Analysis Slope [1]: 51.9 ± 5.1
- maximal carbachol-induced contraction [3]: not significantly different
- amplitude of KCl-induced contractions [4]: showed a tendency to prevent the development of hypercontractile responses to KCl, however in the effect of neither of the drugs reached statistical significance
- amplitude of the maximal response to 5-HT [5]: significant reduction
- mucosal MPO activity [6]: reduced gastric ulceration and mucosal inflammation; also recorded: inhibited MPO activity to levels that were not significantly different from those in naïve animals

Compound: NCCc1c[nH]c2ccc(O)cc12 [5-HT, 5-hydroxytryptamine creatinine sulfate]
- Hill slope (5-HT receptors; [9]): 0.65
- log EC50 (5-HT receptors; [9]): 6.839
- Hill slope (5-HT receptors; strips from naïve rats): 0.48
- log EC50 (5-HT receptors; strips from naïve rats): 6.299

Compound: C[N+](C)(C)CCOC(N)=O.[Cl-] [carbachol, carbamylcholine chloride]
- Hill slope ([7]; strips from naïve rats): 1.07
- Hill slope [7, 10]: 1.11
- log EC50 [7, 10]: −7.32

Compound: NC1=N[C@H](O)[C@H]2[C@H]3O[C@]4(O)O[C@@H]([C@@H](O)[C@@]2(N1)[C@@H]4O)[C@]3(O)CO [tetrodotoxin]
- inhibitory and excitatory responses to EFS (enteric nerves): abolished
